Source: patent US10124033B2, “Peptides and methods of use” (BAXALTA INCORPORATED, priority 2014, dated 2018)
Residues, ends and D or L forms follow the SMILES beside them.

Target: T1, Protein S (Homo sapiens, UniProt P07225)
T1 sequence (P07225 41-676 limits assumed): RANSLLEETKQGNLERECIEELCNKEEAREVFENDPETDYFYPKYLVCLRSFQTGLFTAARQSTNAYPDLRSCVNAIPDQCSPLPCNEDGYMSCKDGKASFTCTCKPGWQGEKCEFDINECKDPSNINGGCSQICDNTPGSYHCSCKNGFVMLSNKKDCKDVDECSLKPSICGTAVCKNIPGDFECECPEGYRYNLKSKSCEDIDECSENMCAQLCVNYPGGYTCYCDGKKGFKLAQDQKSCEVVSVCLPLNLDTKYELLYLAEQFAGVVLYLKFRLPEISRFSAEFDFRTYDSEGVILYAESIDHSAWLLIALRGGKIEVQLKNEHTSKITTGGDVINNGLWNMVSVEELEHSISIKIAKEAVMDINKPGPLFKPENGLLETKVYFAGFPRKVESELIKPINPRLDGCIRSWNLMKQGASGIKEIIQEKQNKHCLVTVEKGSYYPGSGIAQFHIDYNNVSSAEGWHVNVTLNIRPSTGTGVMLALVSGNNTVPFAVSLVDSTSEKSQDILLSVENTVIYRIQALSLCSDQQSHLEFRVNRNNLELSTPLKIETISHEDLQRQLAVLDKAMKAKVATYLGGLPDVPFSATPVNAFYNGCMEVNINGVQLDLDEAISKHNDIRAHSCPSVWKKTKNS
Assay: competition (IC50) ELISA with biotinylated tracer peptide JBS0684
Format: binding
Conditions: competition ELISA, tracer JBS0684; re-synthesized peptides
Method: The new peptide candidates were synthesized (purity >60%) and screened for affinity in a competitive binding assay (ELISA IC50) and activity in a thrombin generation assay (CAT). The competition (IC50) ELISA was performed using biotinylated tracer peptide JBS0684 to compete for Protein S-binding with candidate peptides. Peptides that compete with the tracer bind the same region of Protein S as the tracer (and each other). Ninety-six well PolySorp plates (Nunc) were coated with 3 μg/mL Protein S in coating buffer (15 mM Na2CO3, 35 mM NaHCO3, pH 9.6) over night. Plates were washed three times with wash buffer (HNaT: 175 mM NaCl, 25 mM HEPES, 5 mM CaCl2, 0.1% Tween 80, pH 7.35), and blocked with 100 μl 2% yeast extract in HNaT for at least 1 hour. Plates were then washed three times with HNaT. JBS0684 was applied at a concentration corresponding to the EC90 value determined in the binding ELISA. A competitor stock solution of peptide (10 mM) was diluted 1/33.3 in HNaT without HSA, and a serial ⅓ dilution was prepared with HNaT with 3% DMSO. The dilution was further diluted with the biotinylated tracer peptide in a ratio of 1:6 (20 μl competitor dilution and 100 μl tracer peptide). The mixture of competitor and tracer peptide was applied to the Protein S-coated microtiter plate and incubated for 1.5 hours. The plates were washed three times with HNaT. Peptide-Protein S binding was detected by applying HRP-conjugated streptavidin to the microtiter plate, incubating the mixture for one hour, washing the plate three times with HNaT, applying TMB (3,3′5,5′-Tetramethylbenzidin), and detecting the subsequent chromogenic conversion of TMB by HRP. IC50 measurements of peptides are provided herein (see, e.g., Table 3).

IC50 | Compound
5.2 nM | CC(=O)N[C@H](C(=O)NCC(=O)N[C@@H](Cc1c[nH]cn1)C(=O)N[C@H](C(=O)N[C@@H](CO)C(=O)N[C@@H](C)C(=O)NCC(=O)N[C@@H](Cc1c[nH]c2ccccc12)C(=O)N[C@@H](Cc1ccc(O)cc1)C(=O)N[C@@H](CC(=O)O)C(=O)N[C@@H](Cc1ccc(O)cc1)C(=O)N[C@@H](CC(N)=O)C(=O)N[C@@H](Cc1ccccc1)C(=O)N[C@@H](CC(=O)O)C(=O)N[C@@H](C)C(=O)N[C@@H](Cc1ccc(O)cc1)C(=O)N[C@@H](CCCNC(=N)N)C(=O)N[C@@H](CCC(=O)O)C(=O)N[C@@H](Cc1ccccc1)C(=O)N[C@H](C(N)=O)[C@@H](C)O)C(C)C)[C@@H](C)O [JBS2528] (Ac-TGHVSAGWYDYNFDAYREFT-NH2)
2.3 nM | CC(=O)N[C@H](C(=O)NCC(=O)N[C@@H](Cc1c[nH]cn1)C(=O)N[C@H](C(=O)N[C@@H](CO)C(=O)N[C@@H](C)C(=O)NCC(=O)N[C@@H](Cc1c[nH]c2ccccc12)C(=O)N[C@@H](Cc1ccc(O)cc1)C(=O)N[C@@H](CC(=O)O)C(=O)N[C@@H](Cc1ccc(O)cc1)C(=O)N[C@@H](CC(N)=O)C(=O)N[C@@H](CC(C)C)C(=O)N[C@@H](CC(=O)O)C(=O)N[C@@H](Cc1c[nH]cn1)C(=O)N[C@@H](Cc1ccc(O)cc1)C(=O)N[C@@H](CCCNC(=N)N)C(=O)N[C@@H](CCC(=O)O)C(=O)N[C@@H](Cc1ccccc1)C(=O)N[C@H](C(N)=O)[C@@H](C)O)C(C)C)[C@@H](C)O [JBS2582] (Ac-TGHVSAGWYDYNLDHYREFT-NH2)
5.6 nM | CC(=O)N[C@H](C(=O)NCC(=O)N[C@@H](CCCCN)C(=O)N[C@H](C(=O)N[C@@H](CO)C(=O)N[C@@H](C)C(=O)NCC(=O)N[C@@H](Cc1c[nH]c2ccccc12)C(=O)N[C@@H](Cc1ccc(O)cc1)C(=O)N[C@@H](CC(=O)O)C(=O)N[C@@H](Cc1ccc(O)cc1)C(=O)N[C@@H](CC(N)=O)C(=O)N[C@@H](Cc1ccccc1)C(=O)N[C@@H](CC(=O)O)C(=O)N[C@@H](Cc1c[nH]cn1)C(=O)N[C@@H](Cc1ccc(O)cc1)C(=O)N[C@@H](CCCNC(=N)N)C(=O)N[C@@H](CCC(=O)O)C(=O)N[C@@H](Cc1ccccc1)C(=O)N[C@H](C(N)=O)[C@@H](C)O)C(C)C)[C@@H](C)O [JBS2592] (Ac-TGKVSAGWYDYNFDHYREFT-NH2)
1.6 nM | CC(=O)N[C@H](C(=O)NCC(=O)N[C@@H](Cc1c[nH]cn1)C(=O)N[C@H](C(=O)N[C@@H](CO)C(=O)N[C@@H](C)C(=O)NCC(=O)N[C@@H](Cc1c[nH]c2ccccc12)C(=O)N[C@@H](Cc1ccc(O)cc1)C(=O)N[C@@H](CC(=O)O)C(=O)N[C@@H](Cc1ccc(O)cc1)C(=O)N[C@@H](CC(N)=O)C(=O)N[C@@H](Cc1ccccc1)C(=O)N[C@@H](CC(=O)O)C(=O)N[C@@H](Cc1c[nH]cn1)C(=O)N[C@@H](Cc1ccc(O)cc1)C(=O)N[C@@H](Cc1ccccc1)C(=O)N[C@@H](CCC(=O)O)C(=O)N[C@@H](Cc1ccccc1)C(=O)N[C@H](C(N)=O)[C@@H](C)O)C(C)C)[C@@H](C)O [JBS2625] (Ac-TGHVSAGWYDYNFDHYFEFT-NH2)
3.1 nM | CC(=O)N[C@H](C(=O)N1CCC[C@H]1C(=O)N[C@@H](Cc1c[nH]cn1)C(=O)N[C@H](C(=O)N[C@@H](CO)C(=O)N[C@@H](C)C(=O)NCC(=O)N[C@@H](Cc1c[nH]c2ccccc12)C(=O)N[C@@H](Cc1ccc(O)cc1)C(=O)N[C@@H](CC(=O)O)C(=O)N[C@@H](Cc1ccc(O)cc1)C(=O)N[C@@H](CC(N)=O)C(=O)N[C@@H](Cc1ccccc1)C(=O)N[C@@H](CC(=O)O)C(=O)N[C@@H](Cc1c[nH]cn1)C(=O)N[C@@H](Cc1ccc(O)cc1)C(=O)N[C@@H](CCCNC(=N)N)C(=O)N[C@@H](CCC(=O)O)C(=O)N[C@@H](Cc1ccccc1)C(=O)N[C@H](C(N)=O)[C@@H](C)O)C(C)C)[C@@H](C)O [JBS2629] (Ac-TPHVSAGWYDYNFDHYREFT-NH2)
2.8 nM | CC(=O)N[C@H](C(=O)NCC(=O)N[C@@H](Cc1c[nH]cn1)C(=O)N[C@H](C(=O)N[C@@H](CO)C(=O)N[C@@H](C)C(=O)NCC(=O)N[C@@H](Cc1c[nH]c2ccccc12)C(=O)N[C@@H](Cc1ccc(O)cc1)C(=O)N[C@@H](CC(=O)O)C(=O)N[C@@H](Cc1ccc(O)cc1)C(=O)N[C@@H](CC(N)=O)C(=O)N[C@@H](Cc1ccccc1)C(=O)N[C@@H](CC(=O)O)C(=O)N[C@@H](CO)C(=O)N[C@@H](Cc1ccc(O)cc1)C(=O)N[C@@H](CCCNC(=N)N)C(=O)N[C@@H](CCC(=O)O)C(=O)N[C@@H](Cc1ccccc1)C(=O)N[C@H](C(N)=O)[C@@H](C)O)C(C)C)[C@@H](C)O [JBS2661] (Ac-TGHVSAGWYDYNFDSYREFT-NH2)

Target: T1, Protein S
Assay: LANCE IC50 assay (competition TR-FRET) with tracer JBS0684
Format: binding
Conditions: Table 4, multiple substitutions in JBS2572; read-out: LANCE IC50
Method: Peptides also were characterized in a competition, homogenous europium-based TR-FRET assay (LANCE IC50 assay) using JBS0684 as a tracer (i.e., competitor for Protein S binding). The following reagents were mixed together in a Perkin-Elmer ProxiPlate MTP well (indicated concentration is the final concentration): Eu-labeled Protein S (10 nM), Ulight™-labeled Streptavidin (100 nM), tracer (JBS0684 (300 nM)), and peptide (titrated in three-fold dilution steps). The final volume was 50 μl/well. The reaction mix was incubated for 1 hour at room temperature, then the fluorescence emission at 665 nm was recorded on a multi-mode reader (SpectraMax® M5, Molecular Devices) using the following instrument settings: Ex 340 nm, Em 665 nm, delay 50 μsec, integration 100 μsec, reads 100. Binding of tracer peptides to soluble europium-labeled Protein S was detected by Streptavidin labeled with an acceptor fluorophor (ULight™). Inhibition of tracer-binding to Protein S by a non-biotinylated peptide results in a decrease of TR-FRET between the Eu-labeled Protein S and ULight™-labeled Streptavidin. IC50 values were obtained from peptide titration curves at constant tracer concentration using non-linear regression of the fluorescence emission signals at 665 nm.

IC50 | Compound
2.6 nM | CSCC[C@H](NC(=O)[C@H](Cc1ccc(O)cc1)NC(=O)[C@@H](NC(=O)[C@H](CC(=O)O)NC(=O)[C@H](Cc1ccccc1)NC(=O)[C@H](CC(N)=O)NC(=O)[C@H](Cc1ccc(O)cc1)NC(=O)[C@H](CC(=O)O)NC(=O)[C@H](Cc1ccc(O)cc1)NC(=O)[C@H](Cc1c[nH]c2ccccc12)NC(=O)CNC(=O)[C@H](C)NC(=O)[C@H](CO)NC(=O)[C@@H](NC(=O)[C@H](CC(C)C)NC(=O)CNC(=O)[C@@H](NC(C)=O)[C@@H](C)O)C(C)C)[C@@H](C)O)C(=O)N[C@@H](CCC(=O)O)C(=O)N[C@@H](Cc1ccccc1)C(=O)N[C@H](C(N)=O)[C@@H](C)O [JBS3186] (Ac-TGLVSAGWYDYNFDTYMEFT-NH2)
1.6 nM | CC(=O)N[C@@H](Cc1ccc(O)cc1)C(=O)NCC(=O)N[C@@H](CC(C)C)C(=O)N[C@H](C(=O)N[C@@H](CO)C(=O)N[C@@H](C)C(=O)NCC(=O)N[C@@H](Cc1c[nH]c2ccccc12)C(=O)N[C@@H](Cc1ccc(O)cc1)C(=O)N[C@@H](CC(=O)O)C(=O)N[C@@H](Cc1ccc(O)cc1)C(=O)N[C@@H](CC(N)=O)C(=O)N[C@@H](Cc1ccccc1)C(=O)N[C@@H](CC(=O)O)C(=O)N[C@H](C(=O)N[C@@H](Cc1ccc(O)cc1)C(=O)N[C@@H](CCCNC(=N)N)C(=O)N[C@@H](CCC(=O)O)C(=O)N[C@@H](Cc1ccccc1)C(=O)N[C@H](C(N)=O)[C@@H](C)O)[C@@H](C)O)C(C)C [JBS3190] (Ac-YGLVSAGWYDYNFDTYREFT-NH2)
1.6 nM | CC(=O)N[C@@H](Cc1ccc(O)cc1)C(=O)NCC(=O)N[C@@H](CC(C)C)C(=O)N[C@H](C(=O)N[C@@H](CO)C(=O)N[C@@H](C)C(=O)NCC(=O)N[C@@H](Cc1c[nH]c2ccccc12)C(=O)N[C@@H](Cc1ccc(O)cc1)C(=O)N[C@@H](CC(=O)O)C(=O)N[C@@H](Cc1ccc(O)cc1)C(=O)N[C@@H](CC(N)=O)C(=O)N[C@@H](Cc1ccccc1)C(=O)N[C@@H](CC(=O)O)C(=O)N[C@H](C(=O)N[C@@H](Cc1ccc(O)cc1)C(=O)N[C@@H](CCCNC(=N)N)C(=O)N[C@@H](CCC(=O)O)C(=O)N[C@@H](Cc1ccccc1)C(=O)N[C@H](C(N)=O)[C@@H](C)O)C(C)C)C(C)C [JBS3191] (Ac-YGLVSAGWYDYNFDVYREFT-NH2)
